Assay results as given in PubChem BioAssay (NCI).
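Compound exposure: 48 hours, 5 concentrations, 96-well plates. At the GI50, growth is halved. The concentration for full growth arrest is given as TGI.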

Legend:
Experiment in all cases: growth of human tumour cells (NCI), 48 h
UACC-257 melanoma = tested on: UACC-257 melanoma
SNB-75 CNS = tested on: SNB-75 CNS
BT-549 breast = tested on: BT-549 breast
MDA-MB-231 breast = tested on: MDA-MB-231 breast
HCT-116 colon = tested on: HCT-116 colon
NCI-H23 lung = tested on: NCI-H23 lung
SN12C renal = tested on: SN12C renal
T-47D breast = tested on: T-47D breast
COLO 205 colon = tested on: COLO 205 colon
OVCAR-3 ovarian = tested on: OVCAR-3 ovarian
786-0 renal = tested on: 786-0 renal
SF-539 CNS = tested on: SF-539 CNS
RPMI-8226 leukemia = tested on: RPMI-8226 leukemia
MDA-MB-435 = tested on: MDA-MB-435
DU-145 prostate = tested on: DU-145 prostate
A498 renal = tested on: A498 renal
SK-OV-3 ovarian = tested on: SK-OV-3 ovarian
U251 CNS = tested on: U251 CNS
HCC-2998 colon = tested on: HCC-2998 colon
ACHN renal = tested on: ACHN renal
PC-3 prostate = tested on: PC-3 prostate
IGROV1 ovarian = tested on: IGROV1 ovarian
HL-60(TB) leukemia = tested on: HL-60(TB) leukemia
NCI-H460 lung = tested on: NCI-H460 lung
HOP-62 NSCLC = tested on: HOP-62 NSCLC
SW-620 colon = tested on: SW-620 colon
KM12 colon = tested on: KM12 colon

## NCCOCCOCCNc1nc(-c2ccccc2)nc(N2CCN(c3ccccn3)CC2)n1
UACC-257 melanoma
  GI50: 3.23 µM
  TGI: 12.9 µM
SNB-75 CNS
  GI50: 14.3 µM
  TGI: 30.2 µM
BT-549 breast
  GI50: 11.6 µM
  TGI: 24 µM
MDA-MB-231 breast
  GI50: 14.5 µM
  TGI: 28.8 µM
HCT-116 colon
  GI50: 10 µM
  TGI: 22.6 µM
NCI-H23 lung
  GI50: 16.6 µM
  TGI: 31.3 µM
SN12C renal
  GI50: 17.1 µM
  TGI: 32.8 µM
T-47D breast
  GI50: 11.7 µM
  TGI: 30.3 µM
COLO 205 colon
  GI50: 6.35 µM
  TGI: 21.1 µM
OVCAR-3 ovarian
  GI50: 16.6 µM
  TGI: 30.4 µM
786-0 renal
  GI50: 12.6 µM
  TGI: 26 µM
SF-539 CNS
  GI50: 17.6 µM
  TGI: 33.1 µM
RPMI-8226 leukemia
  GI50: 13.5 µM
  TGI: 34.2 µM
MDA-MB-435
  GI50: 11.4 µM
  TGI: 24.5 µM
DU-145 prostate
  GI50: 15.2 µM
  TGI: 28.7 µM
A498 renal
  GI50: 3.91 µM
  TGI: 18.4 µM
SK-OV-3 ovarian
  GI50: 18.8 µM
  TGI: 34.2 µM
U251 CNS
  GI50: 12.1 µM
  TGI: 26.3 µM
HCC-2998 colon
  GI50: 8.86 µM
  TGI: 22.3 µM
ACHN renal
  GI50: 14.5 µM
  TGI: 27.9 µM
PC-3 prostate
  GI50: 15.7 µM
  TGI: 30.8 µM
IGROV1 ovarian
  GI50: 18.2 µM
  TGI: 34.4 µM
HL-60(TB) leukemia
  GI50: 9.47 µM
  TGI: 26.5 µM
NCI-H460 lung
  GI50: 16.5 µM
  TGI: 34.9 µM
HOP-62 NSCLC
  GI50: 16.7 µM
  TGI: 31 µM
SW-620 colon
  GI50: 13.2 µM
  TGI: 28.4 µM
KM12 colon
  GI50: 16.1 µM
